Key:
[1] = Dissociation constant, pKa of the compound; format: physicochemical
[2] = Lipophilic-hydrophilic balance, Rm of the compound using mixture of glycerol, i-BuOH and 1-pentanol plus methanesulfonic acid as solvent system by acidic reversed-phase chromatography; format: physicochemical
L1210 = test: Antileukemic activity against mouse L1210 cells allografted in ip dosed C3H/HeJ female X DBA2/J male F1 hybrid mouse assessed as maximal increase in host life span at LD10 administered as single dose 24 hrs after tumor implantation; format: functional
Mus musculus = test: Acute toxicity in ip dosed C3H/HeJ female X DBA2/J male F1 hybrid mouse allografted with mouse L1210 cells assessed as mortality administered as single dose; format: organism-based; details: in vivo

SMILES: CS(=O)(=O)OCCCNCCCOS(C)(=O)=O.Cl
- pKa [1]: 8.77
- Rm [2]: -0.88
- Activity (L1210): 84%
- LD10 (Mus musculus): 170 mg/kg

SMILES: CS(=O)(=O)OCCNCCOS(C)(=O)=O.Cl
- Rm [2]: -1.13
- Activity (L1210): >25%
- LD10 (Mus musculus): 25 mg/kg

SMILES: CCS(=O)(=O)OCCNCCOS(=O)(=O)CC.Cl
- Rm [2]: -0.64
- Activity (L1210): 26%
- LD10 (Mus musculus): 35 mg/kg

SMILES: CCCS(=O)(=O)OCCNCCOS(=O)(=O)CCC.Cl
- Rm [2]: -0.1
- Activity (L1210): 57%
- LD10 (Mus musculus): 210 mg/kg

SMILES: CCCCS(=O)(=O)OCCNCCOS(=O)(=O)CCCC.Cl
- Rm [2]: 0.37
- Activity (L1210): 105%
- LD10 (Mus musculus): 750 mg/kg

SMILES: CCCCCS(=O)(=O)OCCNCCOS(=O)(=O)CCCCC.Cl
- Rm [2]: 0.76
- Activity (L1210): 78%
- LD10 (Mus musculus): 520 mg/kg

SMILES: CCS(=O)(=O)OCCCNCCCOS(=O)(=O)CC.Cl
- Rm [2]: -0.47
- Activity (L1210): 100%
- LD10 (Mus musculus): 410 mg/kg

SMILES: CCCS(=O)(=O)OCCCNCCCOS(=O)(=O)CCC.Cl
- Rm [2]: 0.09
- Activity (L1210): 75%
- LD10 (Mus musculus): 285 mg/kg

SMILES: CCCCS(=O)(=O)OCCCNCCCOS(=O)(=O)CCCC.Cl
- Rm [2]: 0.45

SMILES: CS(=O)(=O)OCCCCCCNCCOS(C)(=O)=O.Cl
- Rm [2]: -0.71
- Activity (L1210): 91%
- LD10 (Mus musculus): 185 mg/kg

SMILES: CCS(=O)(=O)OCCCCCCNCCOS(=O)(=O)CC.Cl
- Rm [2]: -0.19
- Activity (L1210): 83%
- LD10 (Mus musculus): 285 mg/kg

SMILES: CCCS(=O)(=O)OCCCCCCNCCOS(=O)(=O)CCC.Cl
- Rm [2]: 0.27
- Activity (L1210): 59%
- LD10 (Mus musculus): 225 mg/kg

SMILES: CCCCS(=O)(=O)OCCNCCCCCCOS(=O)(=O)CCC.Cl
- Rm [2]: 0.51
- Activity (L1210): 35%
- LD10 (Mus musculus): 200 mg/kg

SMILES: CS(=O)(=O)OCCCCCCNCCCOS(C)(=O)=O.Cl
- Rm [2]: -0.65
- Activity (L1210): 107%
- LD10 (Mus musculus): 33 mg/kg

SMILES: CCS(=O)(=O)OCCCCCCNCCCOS(=O)(=O)CC.Cl
- Rm [2]: -0.05
- Activity (L1210): 78%
- LD10 (Mus musculus): 61 mg/kg

SMILES: CCCS(=O)(=O)OCCCCCCNCCCOS(=O)(=O)CCC.Cl
- Rm [2]: 0.32
- Activity (L1210): 45%
- LD10 (Mus musculus): 137 mg/kg

Reference: ChEMBL document CHEMBL3244033, “Potential antitumor agents. 21. Dialkanolamine dialkanesulfonic esters” (J Med Chem, 1977)
